In patent US9802899B2, “Heterocyclic compounds as pesticides” (BAYER CROPSCIENCE AG, priority 2012, dated 2017):

Assays:
[1] = Determination of the log P values by HPLC (formic acid method); assay type: physicochemical; settings: reversed-phase column (C 18), acidic range (pH 3.4), 55° C.; for chromatographic logP: reversed-phase HPLC column (C 18)
Procedure: 1) Description of Method for Determination of the Log P Values (Formic Acid Method)
Eluents for determination in the acidic range (pH 3.4):
Eluent A: acetonitrile+1 ml of formic acid/liter. Eluent B: water+0.9 ml of formic acid/liter.
The lambda max values were determined in the maxima of the chromatographic signals using the UV spectra from 200 nm to 400 nm.

[2] = system: Boophilus microplus; assay: Boophilus microplus test (BOOPMI injection); assay type: in vivo; settings: application rate 20 μg/animal; injection into the abdomen; after 7 days by laying of fertile eggs
Procedure: Boophilus microplus Test (BOOPMI Injection)
(§1) Solvent: dimethyl sulphoxide
To produce a suitable preparation of active compound, 10 mg of active compound are mixed with 0.5 ml of solvent, and the concentrate is diluted with solvent to the desired concentration.
The active compound solution is injected into the abdomen (Boophilus microplus), and the animals are transferred into dishes and stored in a climate-controlled room.
The activity is assessed after 7 days by laying of fertile eggs. Eggs whose fertility is not visible from the outside are stored in a climate-controlled cabinet until the larvae hatch after about 42 days. An efficacy of 100% means that none of the ticks has laid any fertile eggs; 0% means that all eggs are fertile.

[3] = system: Boophilus microplus; assay: Boophilus microplus test (DIP); assay type: in vivo; settings: application rate 100 ppm, after 7 days by laying of fertile eggs, 100% = no fertile eggs
Procedure: Boophilus microplus Test (DIP)
Test animals: adult engorged Boophilus microplus females of the SP-resistant Parkhurst strain
as §1
10 mg of active compound are dissolved in 0.5 ml of dimethyl sulphoxide. For the purpose of preparing a suitable formulation, the active compound solution is diluted with water to the concentration desired in each case.
This active compound preparation is pipetted into tubes. 8-10 ticks are transferred into a further tube with holes. The tube is immersed into the active compound formulation, and all ticks are completely wetted. After the liquid has run out, the ticks are transferred onto filter discs in plastic dishes and stored in a climate-controlled room.
The activity is assessed after 7 days by laying of fertile eggs. Eggs whose fertility is not visible from the outside are stored in a climate-controlled cabinet until the larvae hatch. An efficacy of 100% means that none of the ticks has laid any fertile eggs.

[4] = system: Ctenocephalides felis; assay: Ctenocephalides felis oral test (CTECFE); assay type: in vivo; settings: application rate 100 ppm in citrated cattle blood; adult fleas; after 2 days
Procedure: Ctenocephalides felis—Oral Test (CTECFE)
Solvent: 1 part by weight of dimethyl sulphoxide
To produce a suitable preparation of active compound, 10 mg of active compound are mixed with 0.5 ml of dimethyl sulphoxide. A portion of the concentrate is diluted with citrated cattle blood, and the desired concentration is prepared.
About 20 unfed adult fleas (Ctenocephalides felis) are placed into a chamber which is closed at the top and bottom with gauze. A metal cylinder whose bottom end is closed with a parafilm is placed onto the chamber. The cylinder contains the blood/active compound preparation, which can be imbibed by the fleas through the Parafilm membrane.
After 2 days, the kill in % is determined 100% means that all fleas have been killed; 0% means that none of the fleas have been killed.

[5] = system: Musca domestica; assay: Musca domestica test (MUSCDO); assay type: in vivo; settings: adult flies, after 2 days
Procedure: Musca domestica Test (MUSCDO)
as §1
To produce a suitable preparation of active compound, 10 mg of active compound are mixed with 0.5 ml of dimethyl sulphoxide, and the concentrate is diluted with water to the desired concentration.
Vessels containing a sponge treated with the active compound formulation of the desired concentration are populated with adult Musca domestica.
After 2 days, the kill in % is determined. 100% means that all of the flies have been killed; 0% means that none of the flies have been killed.

[6] = system: Cooperia curticei; assay: Cooperia curticei test (COOPCU); assay type: in vivo
[7] = system: Meloidogyne incognita; assay: Meloidogyne incognita test (MELGIN); assay type: in vivo; settings: Meloidogyne incognita, 336 h; application rate 20 ppm; lettuce in sand; after 14 days; read-out: nematicidal effect (formation of galls)
Procedure: Meloidogyne incognita Test (MELGIN)
Solvent: 125.0 parts by weight of acetone
To prepare a suitable active compound preparation, 1 part by weight of active compound is mixed with the stated amount of solvent and the concentrate is diluted with water to the desired concentration.
Vessels are filled with sand, active compound solution, an egg/larvae suspension of the root-knot nematode (Meloidogyne incognita) and lettuce seeds. The lettuce seeds germinate and the plants develop. On the roots, galls are formed.
After 14 days, the nematicidal effect in % is determined by the formation of galls. 100% means that no galls have been found; 0% means that the number of galls on the treated plants corresponds to the untreated control.

[8] = system: Phaedon cochleariae; assay: Phaedon cochleariae spray test (PHAECO); assay type: in vivo; settings: foliar, 168 h, application rate 500 g/ha, larvae on Chinese cabbage leaf discs, after 7 days, read-out: efficacy
[9] = system: Haemonchus contortus; assay: Haemonchus contortus test (HAEMCO); assay type: in vivo; settings: application rate 4 ppm; larvae; after 5 days
Procedure: Haemonchus contortus Test (HAEMCO)
as §1
To produce a suitable preparation of active compound, 10 mg of active compound are mixed with 0.5 ml of dimethyl sulphoxide, and the concentrate is diluted with Ringer solution to the desired concentration.
Vessels containing the active compound preparation of the desired concentration are populated with about 40 larvae of the red stomach worm (Haemonchus contortus).
After 5 days, the kill in % is determined 100% means that all of the larvae have been killed; 0% means that none of the larvae have been killed.

[10] = Determination of the log P values by HPLC (formic acid method); assay type: physicochemical; settings: printed as (neutral)

Compound	log P [1]	efficacy (kill) [4] [%]	efficacy (kill) [9] [%]	further results
O=C(Nc1ccn(-c2ccccc2Br)n1)c1ncccc1Cl [Compound I-1-55]	2.76			efficacy [2]: 80%
O=C(Nc1ccn(-c2c(F)cccc2F)n1)c1ncccc1C(F)(F)F [Compound I-1-91, N-[1-(2,6-Difluorophenyl)-1H-pyrazol-3-yl]-3-(trifluoromethyl)pyridine-2-carboxamide]		80		chromatographic logP [1]: 2.22; efficacy [3]: 90%; efficacy (kill) ([5]; application rate 20 ppm): 85%; pest or weed control at 100 ppm ([6]; Cooperia curticei, 120 h, application rate 100 ppm, nematode larvae, after 5 days, read-out: efficacy (kill)): 90%; pest or weed control at 20 ppm [7]: 100%; pest or weed control at 500 g/ha [8]: 100%
O=C(Nc1ccn(-c2c(F)cccc2F)n1)c1nccnc1C(F)(F)F [Compound I-1-99]	2.45	80		efficacy [3]: 100%; efficacy (kill) ([5]; application rate 20 ppm): 90%
O=C(Nc1ccn(-c2ncccc2F)n1)c1ccccc1C(F)(F)F [Compound I-1-128]	2.24	85		
O=C(Nc1ccn(-c2ncccc2F)n1)c1ccccc1I [Compound I-1-131]	2.22	90		
O=C(Nc1ccn(-c2cc(F)ccc2F)n1)c1sccc1I [Compound I-1-221]	3.57		90	efficacy (kill) ([6]; application rate 4 ppm, nematode larvae, after 5 days): 90%
O=C(Nc1ccn(-c2ccccc2Br)n1)c1c(F)cccc1C(F)(F)F [Compound I-1-335]				log P (neutral) [10]: 3.02
O=C(Nc1ccn(-c2ncccc2Cl)n1)c1cccnc1C(F)(F)F [Compound I-1-562]	1.98			efficacy (kill) ([5]; application rate 100 ppm): 90%
O=C(Nc1cnn(-c2ccccc2Cl)n1)c1ccccc1C(F)(F)F [Compound I-2-1, N-[2-(2-Chlorophenyl)-2H-1,2,3-triazol-4-yl]-2-(trifluoromethyl)benzamide]		90	80	chromatographic logP [1]: 3.02; efficacy [3]: 100%; pest or weed control at 4 ppm ([6]; Cooperia curticei, 120 h, read-out: efficacy (kill)): 100%; pest or weed control at 500 g/ha [8]: 100%
O=C(Nc1cnn(-c2ncccc2Cl)n1)c1ccccc1C(F)(F)F [Compound I-2-10]	2.38	90		
O=C(Nc1cnn(-c2ncccc2F)n1)c1c(F)cccc1C(F)(F)F [Compound I-2-49]	2.26		90	
O=C(Nc1cnn(-c2ncccc2F)n1)c1ccccc1I [Compound I-2-51]	2.14		80	
